Source: ChEMBL document CHEMBL1149662, “Design and synthesis of a library of tertiary amides: evaluation as mimetics of the melanocortins' active core” (Bioorg Med Chem, 2007)
Activity calls are given as the source filed them. The calls are words filed in the database; no cut-off is given here.

Columns and labels:
[1] = target: T1, Melanocyte-stimulating hormone receptor (Mus musculus, UniProt Q01727); assay: Displacement of [125I]NDP-MSH from MC1 receptor in mouse B16 cells; assay type: cell-based
T1 sequence (Q01727 whole entry): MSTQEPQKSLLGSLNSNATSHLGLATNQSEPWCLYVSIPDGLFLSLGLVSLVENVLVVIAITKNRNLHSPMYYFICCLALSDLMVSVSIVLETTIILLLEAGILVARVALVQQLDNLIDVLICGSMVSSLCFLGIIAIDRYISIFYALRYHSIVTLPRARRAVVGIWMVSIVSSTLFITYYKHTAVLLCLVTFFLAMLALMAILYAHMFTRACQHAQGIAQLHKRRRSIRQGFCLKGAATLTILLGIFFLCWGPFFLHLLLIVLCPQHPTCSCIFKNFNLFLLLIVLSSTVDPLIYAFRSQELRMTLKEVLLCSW

Melanocortin receptor 3 [2] = target: T2, Melanocortin receptor 3 (Homo sapiens, UniProt P41968); assay: Displacement of [125I]NDP-MSH from human recombinant MC3 receptor expressed in Sf9 cells
T2 sequence (P41968 whole entry): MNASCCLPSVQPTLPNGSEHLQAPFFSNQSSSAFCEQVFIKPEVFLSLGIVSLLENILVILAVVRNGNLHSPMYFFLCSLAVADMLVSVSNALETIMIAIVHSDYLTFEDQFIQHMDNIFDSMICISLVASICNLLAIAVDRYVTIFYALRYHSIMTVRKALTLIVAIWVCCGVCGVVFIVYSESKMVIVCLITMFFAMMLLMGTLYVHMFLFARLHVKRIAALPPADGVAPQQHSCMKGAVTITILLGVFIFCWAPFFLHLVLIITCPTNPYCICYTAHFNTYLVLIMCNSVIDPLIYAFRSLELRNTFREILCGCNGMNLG

Melanocortin receptor 4 [3] = target: T3, Melanocortin receptor 4 (Homo sapiens, UniProt P32245); assay: Displacement of [125I]NDP-MSH from human recombinant MC4 receptor expressed in Sf9 cells
T3 sequence (P32245 whole entry): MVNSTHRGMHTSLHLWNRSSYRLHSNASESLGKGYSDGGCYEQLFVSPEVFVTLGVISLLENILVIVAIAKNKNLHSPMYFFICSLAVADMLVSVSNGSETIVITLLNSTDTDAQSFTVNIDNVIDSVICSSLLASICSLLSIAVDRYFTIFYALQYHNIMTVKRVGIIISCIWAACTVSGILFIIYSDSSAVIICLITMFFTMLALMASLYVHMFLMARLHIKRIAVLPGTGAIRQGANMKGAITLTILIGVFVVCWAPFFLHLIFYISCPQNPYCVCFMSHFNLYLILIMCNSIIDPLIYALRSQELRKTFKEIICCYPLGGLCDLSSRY

Melanocortin receptor 5 [4] = target: T4, Melanocortin receptor 5 (Homo sapiens, UniProt P33032); assay: Displacement of [125I]NDP-MSH from human recombinant MC5 receptor expressed in Sf9 cells
T4 sequence (P33032 whole entry): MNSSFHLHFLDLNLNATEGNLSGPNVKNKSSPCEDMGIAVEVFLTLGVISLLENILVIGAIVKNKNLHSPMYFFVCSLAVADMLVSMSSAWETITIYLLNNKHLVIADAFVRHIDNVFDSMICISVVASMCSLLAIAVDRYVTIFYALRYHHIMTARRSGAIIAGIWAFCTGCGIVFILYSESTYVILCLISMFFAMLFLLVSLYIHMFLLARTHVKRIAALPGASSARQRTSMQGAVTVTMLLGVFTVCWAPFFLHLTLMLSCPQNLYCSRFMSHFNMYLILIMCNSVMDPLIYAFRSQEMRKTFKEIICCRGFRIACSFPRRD

[5] = Selectivity for mouse MC1 receptor over human MC3 receptor
[6] = Selectivity for mouse MC1 receptor over human MC4 receptor
[7] = Selectivity for mouse MC1 receptor over human MC5 receptor
[8] = target: Melanocyte-stimulating hormone receptor (Mus musculus) (UniProt Q01727); assay: Antagonist activity MC1 receptor in mouse B16 cells assessed as inhibition of alpha-MSH-induced cAMP accumulation at 100 uM; assay type: functional, cell-based
Chain of Melanocyte-stimulating hormone receptor (Mus musculus) (Q01727 whole entry, looked up): as the sequence (Q01727 whole entry) above

Melanocortin receptor 3 [9] = target: T2, Melanocortin receptor 3; assay: Antagonist activity at MC3 receptor expressed in COS1 cells assessed as inhibition of alpha-MSH-induced cAMP accumulation at 100 uM; assay type: functional, cell-based; conditions: COS-1
Melanocortin receptor 4 [10] = target: T3, Melanocortin receptor 4; assay: Antagonist activity at MC4 receptor expressed in COS1 cells assessed as inhibition of alpha-MSH-induced cAMP accumulation at 100 uM; assay type: functional, cell-based; conditions: COS-1
Melanocortin receptor 5 [11] = target: T4, Melanocortin receptor 5; assay: Antagonist activity at MC5 receptor expressed in COS1 cells assessed as inhibition of alpha-MSH-induced cAMP accumulation at 100 uM; assay type: functional, cell-based; conditions: COS-1
Melanocortin receptor 5 [12] = target: T4, Melanocortin receptor 5; assay: Displacement of [125I]NDP-MSH from human recombinant MC5 receptor expressed in Sf9 cells up to 1 mM
[13] = target: T1, Melanocyte-stimulating hormone receptor; assay: Displacement of [125I]NDP-MSH from MC1 receptor in mouse B16 cells up to 1 mM; assay type: cell-based
Melanocortin receptor 3 [14] = target: T2, Melanocortin receptor 3; assay: Displacement of [125I]NDP-MSH from human recombinant MC3 receptor expressed in Sf9 cells up to 1 mM
Melanocortin receptor 4 [15] = target: T3, Melanocortin receptor 4; assay: Displacement of [125I]NDP-MSH from human recombinant MC4 receptor expressed in Sf9 cells up to 1 mM

Ki [1] | Ki (Melanocortin receptor 3 [2]) | Ki (Melanocortin receptor 4 [3]) | Ki (Melanocortin receptor 5 [4]) | Structure (SMILES) | also measured
20 µM | 63 µM | 161 µM | 12 µM | NCCCN(Cc1ccc2ccccc2c1)C(=O)Cc1c[nH]c2ccccc12 | Activity [8]: Active; Activity (Melanocortin receptor 3 [9]): Active; Activity (Melanocortin receptor 4 [10]): Active; Activity (Melanocortin receptor 5 [11]): Active
2.4 µM | 37 µM | 33 µM | 25 µM | NCCCN(C(=O)Cc1c[nH]c2ccccc12)C1CCc2ccccc2C1 (configuration not stated) | Ratio [5]: 10; Ratio [6]: 10; Ratio [7]: 10
15 µM | 63 µM | 111 µM | 16 µM | NCCCCN(Cc1ccc2ccccc2c1)C(=O)Cc1c[nH]c2ccccc12 | Activity [8]: Active; Activity (Melanocortin receptor 3 [9]): Active; Activity (Melanocortin receptor 4 [10]): Active; Activity (Melanocortin receptor 5 [11]): Active
1.2 µM | 24 µM | 17 µM | 40 µM | NCCCCCCCCN(C/C=C/c1ccccc1)C(=O)CCc1c[nH]c2ccccc12 | Ratio [5]: 10; Ratio [6]: 10; Ratio [7]: 10
3.7 µM | 27 µM | 8.1 µM | 8 µM | NCCCCCN(C/C=C/c1ccccc1)C(=O)CCc1c[nH]c2ccccc12 | Activity [8]: Active; Activity (Melanocortin receptor 3 [9]): Active; Activity (Melanocortin receptor 4 [10]): Active; Activity (Melanocortin receptor 5 [11]): Active
1.2 µM | 121 µM | 2.3 µM | 15 µM | Cc1ccccc1CN(C(=O)CCCc1c[nH]c2ccccc12)C1CCC(CC2CCC(N)CC2)CC1 (configuration not stated) | 
2.2 µM | 57 µM | 5.3 µM | 49 µM | NC1CCCC(NC(=O)NC2CCCC(N(Cc3ccccc3)C(=O)CCCc3c[nH]c4ccccc34)C2)C1 (configuration not stated) | 
3.6 µM | 80 µM | 4.4 µM | 9.1 µM | NC1CCC(CC2CCC(N(Cc3ccccc3Br)C(=O)CCCc3c[nH]c4ccccc34)CC2)CC1 (configuration not stated) | 
17 µM | 51 µM | 106 µM | 13 µM | NCCN(C/C=C/c1ccccc1)C(=O)CCc1c[nH]c2ccccc12 | 
1.6 µM | 62 µM | 3.7 µM | 42 µM | NC1CCC(CC2CCC(N(C/C(Cl)=C/c3ccccc3)C(=O)COc3ccc4ccccc4c3)CC2)CC1 (stereo in doubt; form 8) | 
5.5 µM | 38 µM | 12 µM | 23 µM | NCCCCCN(Cc1ccc2c(c1)OCO2)C(=O)CCCc1c[nH]c2ccccc12 | 
2.3 µM | 33 µM | 5.2 µM | 5.4 µM | NC1CCC(CC2CCC(N(C/C(Cl)=C/c3ccccc3)C(=O)CCCc3c[nH]c4ccccc34)CC2)CC1 (stereo in doubt; form 3) | 
5.1 µM | 20 µM | 12 µM | 34 µM | NCCCCCN(Cc1ccc2ccccc2c1)C(=O)CCCc1c[nH]c2ccccc12 | Activity [8]: Active; Activity (Melanocortin receptor 3 [9]): Active; Activity (Melanocortin receptor 4 [10]): Active; Activity (Melanocortin receptor 5 [11]): Active
36 µM | 68 µM | 140 µM | 18 µM | NCCN(Cc1ccc2ccccc2c1)C(=O)Cc1c[nH]c2ccccc12 | Activity [8]: Active; Activity (Melanocortin receptor 3 [9]): Active; Activity (Melanocortin receptor 4 [10]): Active; Activity (Melanocortin receptor 5 [11]): Active
72 µM | 289 µM | 78 µM | 408 µM | CCCCCN(Cc1ccc(N(CC)CC)cc1)C(=O)CCCc1c[nH]c2ccccc12 | 
2.9 µM | 5.4 µM | 7.4 µM | 9.1 µM | COc1cc(Br)c(CN(C(=O)CCCc2c(Cc3ccc(O)cc3)[nH]c3ccccc23)[C@H]2CC[C@@H](C[C@H]3CC[C@H](N)CC3)CC2)cc1OC | 
2.9 µM | 9.3 µM | 4.8 µM | 278 µM | COc1ccc(CN(C(=O)CCCc2c[nH]c3ccccc23)C2CCC(CC3CCC(N)CC3)CC2)cc1Br (configuration not stated) | 

Further lines, the compound ahead of its results:

Structure (SMILES) | Ki [1] | Ki (Melanocortin receptor 3 [2]) | Ki (Melanocortin receptor 4 [3]) | Ki (Melanocortin receptor 5 [4]) | also measured
NCc1cccc(CN(Cc2ccccc2)C(=O)CCCc2c[nH]c3ccccc23)c1 | 1.9 µM | 45 µM | 33 µM | 32 µM | Ratio [5]: 10; Ratio [6]: 10; Ratio [7]: 10
N=C(N)NCCCN(Cc1ccc2ccccc2c1)C(=O)CCc1c[nH]c2ccccc12 | 12 µM | 53 µM | 16 µM | 13 µM | Activity [8]: Active; Activity (Melanocortin receptor 3 [9]): Active; Activity (Melanocortin receptor 4 [10]): Active; Activity (Melanocortin receptor 5 [11]): Active
NCCCN(C/C=C/c1ccccc1)C(=O)Cc1c[nH]c2ccccc12 | 6.4 µM | 21 µM | 26 µM |  | Ki (Melanocortin receptor 5 [12]): Not Active
NCCCCCN(Cc1ccccc1)C(=O)[C@H](N)Cc1ccccn1 |  |  |  |  | Ki [13]: Not Active; Ki (Melanocortin receptor 3 [14]): Not Active; Ki (Melanocortin receptor 4 [15]): Not Active; Ki (Melanocortin receptor 5 [12]): Not Active
N=C(N)NCCCCN(Cc1ccc2ccccc2c1)C(=O)CCc1c[nH]c2ccccc12 |  |  |  |  | Activity [8]: Active; Activity (Melanocortin receptor 3 [9]): Active; Activity (Melanocortin receptor 4 [10]): Active; Activity (Melanocortin receptor 5 [11]): Active
COc1cc(Cl)c(CN(C(=O)CCCc2c[nH]c3ccccc23)C2CCC(CC3CCC(N)CC3)CC2)cc1OC (stereo in doubt; form 1) | 2.1 µM | 24 µM | 2.3 µM | 4.3 µM | 
NCCCN(C(=O)/C=C/c1c[nH]c2ccccc12)C1CCc2ccccc2C1 (configuration not stated) | 6 µM | 48 µM | 11 µM | 12 µM | 
N#Cc1ccc(CN(C(=O)CCCc2c[nH]c3ccccc23)C2CCC(CC3CCC(N)CC3)CC2)cc1 (stereo in doubt; form 1) | 1.6 µM | 12 µM | 2 µM | 6.5 µM | 
NCCCCCN(C/C(Cl)=C\c1ccccc1)C(=O)/C=C/c1c[nH]c2ccccc12 | 2.7 µM | 27 µM | 59 µM | 5.4 µM | 
NCCCCCN(Cc1ccccc1)C(=O)[C@H](N)Cc1c[nH]c2ccccc12 | 32 µM | 106 µM | 87 µM | 159 µM | 
COc1ccc(CN(C(=O)CCCc2c[nH]c3ccccc23)C2CCC(CC3CCC(N)CC3)CC2)cc1OC (configuration not stated) | 3.2 µM | 22 µM | 3.7 µM | 8.3 µM | 
NCCCCCN(CCc1ccc2ccccc2c1)C(=O)Cc1c[nH]c2ccccc12 | 4.5 µM | 13 µM | 9.4 µM | 8 µM | 
N=C(N)NC1CCC(CC2CCC(N(C/C(Cl)=C/c3ccccc3)C(=O)CCCc3c[nH]c4ccccc34)CC2)CC1 (stereo in doubt; form 1) | 5.4 µM | 9.6 µM | 4 µM | 24 µM | 
COc1cc(O)ccc1/C=C/CN(C(=O)CCCc1c[nH]c2ccccc12)C1CCC(CC2CCC(N)CC2)CC1 (stereo in doubt; form 1) | 2.9 µM | 37 µM | 6.4 µM | 7.6 µM | 
N#Cc1ccc(CN(C(=O)CCCc2c[nH]c3ccccc23)C2CCC(CC3CCC(N)CC3)CC2)cc1 (stereo in doubt; form 2) | 1.5 µM | 20 µM | 1.6 µM | 3.9 µM | 
CCC(c1ccccc1)N(CCCCN)C(=O)CCc1c[nH]c2ccccc12 (configuration not stated) | 15 µM | 38 µM | 158 µM | 13 µM | 
NCCN(C(=O)Cc1ccc2ccccc2c1)C1CCc2ccccc2C1 (configuration not stated) | 1.6 µM | 29 µM | 27 µM | 25 µM | Ratio [5]: 10; Ratio [6]: 10; Ratio [7]: 10
